Test results reported in patent US20250009747A1, “ENDOTHELIN RECEPTOR ANTAGONISTS FOR USE IN TREATING OR PREVENTING MUSCLE FIBROSIS” (ASSOCIATION INSTITUT DE MYOLOGIE, priority 2021, published 2025).
Entries after “also recorded” stand apart in the source; their conditions may differ. Square brackets hold non-standard residues; d marks the D form. Peptide text beside a SMILES is read from it.

How the values were obtained:
Assay type in all cases: cell-based, human
[1] = tested on: FAPs from M^CT, FibM^CT and FibM^OP; test: COL7A1 immunostaining as a readout of ECM production in FAPs treated with ET-1 +/- antagonist; settings: 3 days
Excerpt: (§1) Human FAPs cells were isolated from muscle biopsies obtained during surgical procedures via Myobank, affiliated to EuroBioBank, after informed consent in accordance with European recommendations and French legislation (authorization AC-2019-3502). Human FAPs isolated here as the CD56 negative cell fraction (Périé, S. et al. 2006), are obtained from control skeletal muscle: M^CT, control fibrotic cricopharyngeal muscle (CPM): FibM^CT, OPMD fibrotic CPM with exacerbated levels of fibrosis: FibM^OP, and fibrotic muscle from inclusion body myositis patients: FibM^IBM. All tested fibrotic muscle are skeletal fibrotic muscle. These cells expressed predominantly PDGFRa, CD90 and CD105 known markers of Fibro/Adipogenic Progenitors (FAPs) in human skeletal muscle. The tissue type, cell type, age, pathological condition and muscle fibrotic state of each biopsy sample are specified in table below.
(§2) The muscle biopsies were finely minced and explants were plated onto non-coated Petri dishes in drops of fetal bovine serum (FBS) (Invitrogen, Carlsbad, CA) as previously described (Bigot et al., 2009). Cells were cultivated at 37° C. in a humid atmosphere containing 5% CO2 and in growth medium consisting of 199 medium (Life technologies, Paisley, UK) and Dulbecco's Modified Eagle Medium (DMEM, Life technologies) in a 1:4 ratio supplemented with 20% Fetal Bovine Serum (FBS, Invitrogen), 25 μg/ml fetuin (Life technologies), 0.5 ng/mL bFGF (Life technologies), 5 ng/ml EGF (Life technologies), 5 μg/mL insulin (Sigma-Aldrich) and 50 μg/mL gentamycin (Life Technologies). Cells were labelled with CD56 antibody coupled to microbeads (130-050-401, MACS; Miltenyi Biotec, Paris, France) and then separated using a immunomagnetic cell sorting system (MACS) according to the manufacturer's instructions. The myogenic purity of both cell fractions (CD56+, myogenic and CD56−, non-myogenic) was monitored by immunocytochemistry using an antibody against desmin (clone D33, Dako, Trappes, France), exclusively expressed in myogenic cells.
The method for quantification of ET-1 protein is described in Le Bihan et al. 2012. Treatment of FAPs to evaluate the effect of ET-1 was performed on 70-80% confluence cells that were rinsed twice with DMEM and treated 3 days with proliferation medium at 1% FBS (instead of 20%) containing either DMSO or 40 nM ET-1 (E7764, Sigma-Aldrich)+/−10 μM Bosentan (SML1265, Sigma Aldrich), 10 nM BQ788 (SML192621, Sigma Aldrich), or 10 nM BQ123 (B150, Sigma-Aldrich). For proliferation experiment, Edu (10 μM) was added at day 2 and cells were fixed 24 h later. EdU labeling was carried out using the Click-iT™ EdU Cell Proliferation Kit (C10338, Life Technologies) according to the manufacturer's instructions. […]

[2] = tested on: FAPs from M^CT, FibM^CT and FibM^OP; test: Edu proliferation of FAPs treated with ET-1 +/- antagonist; settings: 3 days
Excerpt: as §1
as §2, with “Cells were labelled with CD56 antibody coupled to microbeads (130-050-401, MACS; Miltenyi Biotec, Paris, France) and then separated using a immunomagnetic cell sorting system (MACS) according to the manufacturer's instructions.” left out
The method for quantification of ET-1 protein is described in Le Bihan et al. 2012. […]

[3] = tested on: myoblast cocultured with FAPs from FibM^OP; test: Coculture of myoblasts with FAPs from fibrotic muscle, fusion index; settings: Bosentan 10 μM added at day 0 and day 3, fixed at day 5, myoblasts/FAPs 70%/30%
Protocol: Non-myogenic (CD56-) and myogenic (CD56+) cells were seeded together at a 30%/70% ratio and at a final confluence of 21000 cells/cm2. Once the cells have adhered, the medium was replaced by a differentiation medium composed by DMEM with 50 μg/mL gentamycin. To study the effect of Bosentan on the fusion index in coculture 10 μM of Bosentan (SML1265, Sigma Aldrich) was added to the wells at day 0 and day 3. Cells were fixed at day 5 in 4% paraformaldehyde (PFA). The fusion index was calculated as the ratio between the number of nuclei per myotube (>2 nuclei) identified by a desmin staining and the total number of desmin+nuclei. Immunostaining were performed on cells fixed in 4% PFA for 10 minutes (min) and incubated with blocking solution (PBS 2% FBS 0.2% Triton) for 30 minutes (min). Fixed cells were then incubated 1 h with primary antibodies (COL7A1 […] Sigma Aldrich 1/800; Desmin […] Dako 1/50). Detection of immune complexes was performed using the appropriate Alexa-Fluor-secondary antibodies purchased from Life Technologies (Grand Island, NY) for 45 min. Nuclei and actin filament were counterstained with Hoechst and Phalloidin-Alexa 568 (Interchim 1/400) respectively.

## CC(C)C[C@@H]1NC(=O)[C@@H](C(C)C)NC(=O)[C@@H]2CCCN2C(=O)[C@@H](CC(=O)O)NC(=O)[C@@H](Cc2c[nH]c3ccccc23)NC1=O [BQ123] (cyclo(L[dW][dD]P[dV]))
[1]; ET-1 40 nM + antagonist 10 nM
  ECM production (percentage of COL7A1 positive cells): decrease of ECM production

## CCCC[C@@H](NC(=O)[C@@H](Cc1cn(C(=O)OC)c2ccccc12)NC(=O)[C@H](CC(C)(C)C)NC(=O)N1[C@H](C)CCC[C@@H]1C)C(=O)O [BQ788]
[1]; ET-1 40 nM + antagonist 10 nM
  ECM production (percentage of COL7A1 positive cells): decrease of ECM production
[2]; ET-1 40 nM + BQ788 10 nM
  proliferation (percentage of Edu positive cells): decrease of proliferation

## COc1ccccc1Oc1c(NS(=O)(=O)c2ccc(C(C)(C)C)cc2)nc(-c2ncccn2)nc1OCCO [Bosentan]
[1]; ET-1 40 nM + Bosentan 10 μM
  ECM production (percentage of COL7A1 positive cells): partially abolished the effect of ET1
[2]; ET-1 40 nM + Bosentan 10 μM
  proliferation (percentage of Edu positive cells): partially abolished the effect of ET1; also recorded: decrease of proliferation
[3]
  fusion index: partially restored to control levels

## CC[C@H](C)[C@H](NC(=O)[C@H](CC(=O)O)NC(=O)[C@H](CC(C)C)NC(=O)[C@H](Cc1c[nH]cn1)NC(=O)[C@@H]1CSSC[C@H](N)C(=O)N[C@@H](CO)C(=O)N[C@H]2CSSC[C@H](NC(=O)[C@H](CCC(=O)O)NC(=O)[C@H](CCCCN)NC(=O)[C@H](CC(=O)O)NC(=O)[C@H](CCSC)NC(=O)[C@H](CC(C)C)NC(=O)[C@H](CO)NC(=O)[C@H](CO)NC2=O)C(=O)N[C@@H](C(C)C)C(=O)N[C@@H](Cc2ccc(O)cc2)C(=O)N[C@@H](Cc2ccccc2)C(=O)N1)C(=O)N[C@H](C(=O)N[C@@H](Cc1c[nH]c2ccccc12)C(=O)O)[C@@H](C)CC [ET1]
[1]; ET-1 40 nM, vs DMSO
  ECM production (percentage of COL7A1 positive cells): increased
[2]; ET-1 40 nM, vs DMSO
  proliferation (percentage of Edu positive cells): increased
